Assay results taken from PubChem BioAssay (NCI).
“And” between values parts separate entries of the source, which are not always exact repeats. Equal values may be shown once.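 Test compounds were applied to cells in 96-well plates for 48 hours at 5 doses. GI50: concentration for 50% inhibition of growth. TGI denotes the concentration required for complete inhibition of growth.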

Tests used:
Assay in all cases: NCI tumour cell line growth inhibition, 48 h
HS 578T breast = system: HS 578T breast
UACC-257 melanoma = system: UACC-257 melanoma
DU-145 prostate = system: DU-145 prostate
ACHN renal = system: ACHN renal
HCT-15 colon = system: HCT-15 colon
OVCAR-4 ovarian = system: OVCAR-4 ovarian
NCI-H522 lung = system: NCI-H522 lung

SMILES | GI50 (HS 578T breast) | TGI (HS 578T breast) | GI50 (UACC-257 melanoma) | TGI (UACC-257 melanoma) | GI50 (DU-145 prostate) | TGI (DU-145 prostate) | GI50 (ACHN renal) | TGI (ACHN renal) | GI50 (HCT-15 colon) | TGI (HCT-15 colon) | GI50 (OVCAR-4 ovarian) | TGI (OVCAR-4 ovarian) | GI50 (NCI-H522 lung) | TGI (NCI-H522 lung)
O=C(Nc1ccncc1)C(=O)c1cn(S(=O)(=O)c2ccc(Br)cc2)c2ccccc12 | > 100 µM | > 100 µM | 7.62 µM | > 100 µM | 19 µM | > 100 µM | 9.13 µM | > 100 µM | 3.81 µM | > 100 µM | 15.1 µM | > 100 µM | 1.94 µM | > 100 µM
COC(=O)[C@]12CC[C@@H](C)[C@H](C)[C@@H]1C1=CC[C@@H]3[C@@]4(C)CC(=O)[C@H](O)[C@@]5(C)COC(=C45)C[C@@]3(C)[C@]1(C)CC2 | 18.4 µM | 45 µM | 19.2 µM | 33.4 µM | 18.7 µM | 35.1 µM | 18.3 µM | 33.9 µM | 18 µM | 33.4 µM | 17.1 µM | 36 µM | 19.4 µM | 35.7 µM
COC(=O)c1cnc(=O)n(C2CC(O)C(CO)O2)c1 (configuration not stated) | > 100 µM | > 100 µM | > 100 µM | > 100 µM | > 100 µM | > 100 µM | > 100 µM | > 100 µM | > 100 µM | > 100 µM | > 100 µM | > 100 µM | > 100 µM | > 100 µM
O=C1/C(=C\c2ccc(Cl)cc2)CN(C(=S)Nc2ccccc2)C/C1=C\c1ccc(Cl)cc1 | 3 µM | 23.3 µM | 1.83 µM | 3.78 µM | 1.11 µM | 3.48 µM | 1.22 µM | 2.65 µM | 0.283 µM | 3.27 µM | 0.343 µM | 2.77 µM | 1.82 µM | 3.84 µM
CC1(C)N=C(N)N=C(N)N1c1cccc(/C=C/C=C/c2cccc([N+](=O)[O-])c2)c1 | 12.9 µM | 34.7 µM | 5.42 µM | 20.2 µM | 7.5 µM | 20.2 µM | 75.7 µM | > 100 µM | 98.1 µM | > 100 µM | 5.54 µM | 22.5 µM | 4.72 µM | 20.1 µM
CCOC(=O)c1cnc(SCc2ccc(Cl)c(Cl)c2)nc1N1CC1 | 2.31 µM | 7.01 µM | 4.78 µM | 19.8 µM | 2.98 µM | 9.73 µM | 3.12 µM | 13.2 µM | 1.31 µM | 14.4 µM | 3.17 µM | 14 µM | 2.23 µM | 6.88 µM
O=C(Nc1n[nH]c2nc(-c3ccco3)c(Br)cc12)C1CC1 | > 25 µM | > 25 µM | > 25 µM | > 25 µM | > 25 µM | > 25 µM | > 25 µM | > 25 µM | > 25 µM | > 25 µM | > 25 µM | > 25 µM | > 25 µM | > 25 µM
N#C/C(=C\c1c(-c2ccccc2)[nH]c2ccccc12)C(=O)c1ccc(Cl)cc1 | 1.56 µM | 9.27 µM | 30.2 µM | > 87.3 µM | 3.54 µM | 16.7 µM | 6.69 µM | > 55 µM | 1.38 µM | > 100 µM | 3.68 µM | 22.8 µM | 2.89 µM | > 30 µM
CC(Cc1ccc(Cl)cc1Cl)NO (configuration not stated) |  | > 100 µM |  | > 100 µM |  | > 100 µM |  | > 100 µM |  | > 100 µM |  | > 100 µM |  | > 100 µM
C1=CN2C[n+]3cccc(OCc4ccccc4)c3N=C2C(OCc2ccccc2)=C1 |  | 21.5 µM |  | 27.5 µM |  | > 100 µM |  | > 100 µM |  | > 100 µM |  | 82.9 µM |  | 15.8 µM
O=C(CCCc1c[nH]c2ccccc12)NC1CC(=O)c2c(Br)sc(Br)c21 (configuration not stated) | 6.44 µM | 51.3 µM | 19.2 µM | 48.1 µM | 23.5 µM | > 100 µM | 16.5 µM | 30.4 µM | 3.51 µM | 10.9 µM | 12.8 µM | 25.9 µM | 21.1 µM | 52.2 µM
COc1cc(CCc2cc(NC(=O)c3ccc(N4C[C@@H](C)N[C@@H](C)C4)cc3)n[nH]2)cc(OC)c1 | 1.12 µM and 2.44 µM | > 10 µM and 14.4 µM | > 10 µM and 2.08 µM | > 10 µM and 5.31 µM | 7.62 µM and 6.09 µM | > 10 µM and 18.5 µM | 9.45 µM and 4.41 µM | > 10 µM and 15.3 µM | > 10 µM and 9.71 µM | > 10 µM and 23.6 µM | > 10 µM and 3.73 µM | > 10 µM and 18.5 µM | > 10 µM and 9.95 µM | > 10 µM and 24.5 µM
O=C1c2cc3c(cc2-c2c1c1cc(Cl)c(Cl)cc1c(=O)n2CCCn1ccnc1)OCO3 | 17.1 µM | > 100 µM | 0.0122 µM | 1.31 µM | < 0.01 µM | 59.9 µM | < 0.01 µM | 1.09 µM | 0.0257 µM | > 100 µM | 0.0495 µM | > 100 µM | < 0.01 µM | 0.835 µM
CCCCCCCCCCCCCCCCCCNC(=O)[C@H]1CSC(c2ccc(OC)c(F)c2)N1 (some centres not stated) | 4.29 µM | 20.3 µM | > 19.9 µM | > 44.1 µM | 24.2 µM | > 54.6 µM | > 36.8 µM | > 52.1 µM | > 37.1 µM | > 53.1 µM | 14 µM | > 41.3 µM | > 29.4 µM | > 51.6 µM
COc1cc(C(=O)O)c([N+](=O)[O-])c(OC)c1OC |  | > 100 µM |  | > 100 µM |  | > 100 µM |  | > 100 µM |  | > 100 µM |  | > 100 µM |  | > 100 µM
Cc1cc2c(C)c3cc(C)c(N)cc3nc2cc1N | 1.64 µM | 7.95 µM | 2.8 µM | 9.96 µM | 0.749 µM | 5.3 µM | 0.422 µM | 3.82 µM | 1.43 µM | 10.6 µM | 1.1 µM | 3.92 µM | 0.527 µM | 2.02 µM
Cc1cc(NC(=O)C2c3ccccc3C(=O)N(CC(C)C)C2c2cccs2)no1 (configuration not stated) | 86.7 µM | > 100 µM | > 100 µM | > 100 µM | > 100 µM | > 100 µM | 55.2 µM | > 100 µM | 70.6 µM | > 100 µM | 31.3 µM | > 100 µM | 52.2 µM | > 100 µM
